{
  "source": "PubChem BioAssay (NCI)",
  "assay_in_all_cases": "NCI-60 cell line screen, 48 h",
  "key": {"NCI/ADR-RES ovarian": {"test_system": "NCI/ADR-RES ovarian"}, "BT-549 breast": {"test_system": "BT-549 breast"}, "MDA-MB-231 breast": {"test_system": "MDA-MB-231 breast"}, "MCF7 breast": {"test_system": "MCF7 breast"}, "M19-MEL melanoma": {"test_system": "M19-MEL melanoma"}, "LXFL 529 NSCLC": {"test_system": "LXFL 529 NSCLC"}, "MDA-N": {"test_system": "MDA-N"}},
  "note": "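Cultured in 96-well plates, cells were exposed to test compound for 48 hours across five concentrations. GI50 = concentration required for 50% inhibition of growth. TGI: concentration producing complete growth inhibition.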",
  "data": [
    {"smiles": "N#CC1C(N)=NNC12Nc1ccccc1N2", "note": "(stereo not drawn)", "values": [
      {"measurement": "GI50", "setting": "NCI/ADR-RES ovarian", "result": 24.5, "unit": "µM"},
      {"measurement": "TGI", "setting": "NCI/ADR-RES ovarian", "result": 74.5, "unit": "µM"},
      {"measurement": "GI50", "setting": "BT-549 breast", "result": 6.55, "unit": "µM"},
      {"measurement": "TGI", "setting": "BT-549 breast", "result": 31.6, "unit": "µM"},
      {"measurement": "GI50", "setting": "MDA-MB-231 breast", "result": 3.04, "unit": "µM"},
      {"measurement": "TGI", "setting": "MDA-MB-231 breast", "result": 40.6, "unit": "µM"}
    ]},
    {"smiles": "C=C[C@]1(C)C=C2C(=O)[C@@]3(O)OC[C@@]4(CCCC(C)(C)C43O)C2(O)C(O)C1", "note": "(stereo partly drawn)", "values": [
      {"measurement": "GI50", "setting": "MCF7 breast", "result": 3.39, "unit": "µM"},
      {"measurement": "TGI", "setting": "MCF7 breast", "result": 15.3, "unit": "µM"},
      {"measurement": "GI50", "setting": "NCI/ADR-RES ovarian", "result": 2.33, "unit": "µM"},
      {"measurement": "TGI", "setting": "NCI/ADR-RES ovarian", "result": 6.62, "unit": "µM"},
      {"measurement": "GI50", "setting": "BT-549 breast", "result": 3.47, "unit": "µM"},
      {"measurement": "TGI", "setting": "BT-549 breast", "result": 13.2, "unit": "µM"},
      {"measurement": "GI50", "setting": "MDA-MB-231 breast", "result": 13.3, "unit": "µM"},
      {"measurement": "TGI", "setting": "MDA-MB-231 breast", "result": 27.3, "unit": "µM"}
    ]},
    {"smiles": "Cc1cc(N2CCCC2)nc(N(CCCNc2ccnc3cc(Cl)ccc23)Cc2ccc3c(c2)OCO3)n1", "values": [
      {"measurement": "GI50", "setting": "MCF7 breast", "result": 1.17, "unit": "µM"},
      {"measurement": "TGI", "setting": "MCF7 breast", "result": 4.98, "unit": "µM"},
      {"measurement": "GI50", "setting": "NCI/ADR-RES ovarian", "result": 1.43, "unit": "µM"},
      {"measurement": "TGI", "setting": "NCI/ADR-RES ovarian", "result": 3.92, "unit": "µM"},
      {"measurement": "GI50", "setting": "MDA-MB-231 breast", "result": 0.681, "unit": "µM"},
      {"measurement": "TGI", "setting": "MDA-MB-231 breast", "result": 3.42, "unit": "µM"}
    ]},
    {"smiles": "Nc1nc(OCc2ccccc2)nc2[nH]ncc12", "values": [
      {"measurement": "GI50", "setting": "MCF7 breast", "result": 16.1, "unit": "µM"},
      {"measurement": "TGI", "setting": "MCF7 breast", "result": 33.1, "unit": "µM"},
      {"measurement": "GI50", "setting": "NCI/ADR-RES ovarian", "result": 17.6, "unit": "µM"},
      {"measurement": "TGI", "setting": "NCI/ADR-RES ovarian", "result": 42.4, "unit": "µM"},
      {"measurement": "GI50", "setting": "BT-549 breast", "result": 23.2, "unit": "µM"},
      {"measurement": "TGI", "setting": "BT-549 breast", "result": 54.8, "unit": "µM"},
      {"measurement": "GI50", "setting": "MDA-MB-231 breast", "result": 11.4, "unit": "µM"},
      {"measurement": "TGI", "setting": "MDA-MB-231 breast", "result": 25.6, "unit": "µM"}
    ]},
    {"smiles": "CC1CC2(CC[C@@H]1O)OCCO2", "note": "(stereo partly drawn)", "values": [
      {"measurement": "TGI", "setting": "M19-MEL melanoma", "result": "> 100", "unit": "µM"},
      {"measurement": "TGI", "setting": "LXFL 529 NSCLC", "result": "> 100", "unit": "µM"}
    ]},
    {"smiles": "CCOC(=O)c1c(C)n(Cc2ccc(Cl)cc2Cl)c2c1cc1oc(=O)c(=O)n3c(Cc4ccccc4)nc2c13", "values": [
      {"measurement": "GI50", "setting": "MCF7 breast", "result": 2.52, "unit": "µM"},
      {"measurement": "TGI", "setting": "MCF7 breast", "result": 8.07, "unit": "µM"},
      {"measurement": "GI50", "setting": "NCI/ADR-RES ovarian", "result": 5.46, "unit": "µM"},
      {"measurement": "TGI", "setting": "NCI/ADR-RES ovarian", "result": 18.3, "unit": "µM"},
      {"measurement": "GI50", "setting": "BT-549 breast", "result": 2.55, "unit": "µM"},
      {"measurement": "TGI", "setting": "BT-549 breast", "result": 6.4, "unit": "µM"},
      {"measurement": "GI50", "setting": "MDA-MB-231 breast", "result": 2.77, "unit": "µM"},
      {"measurement": "TGI", "setting": "MDA-MB-231 breast", "result": 7.23, "unit": "µM"}
    ]},
    {"smiles": "O=C(NN1C(=O)CSC1c1ccc(Cl)cc1)c1[nH]c2ccc(F)cc2c1-c1ccccc1", "note": "(stereo not drawn)", "values": [
      {"measurement": "GI50", "setting": "MCF7 breast", "result": 2.85, "unit": "µM"},
      {"measurement": "TGI", "setting": "MCF7 breast", "result": 8.58, "unit": "µM"},
      {"measurement": "GI50", "setting": "NCI/ADR-RES ovarian", "result": 3, "unit": "µM"},
      {"measurement": "TGI", "setting": "NCI/ADR-RES ovarian", "result": 10.6, "unit": "µM"},
      {"measurement": "GI50", "setting": "BT-549 breast", "result": 2.09, "unit": "µM"},
      {"measurement": "TGI", "setting": "BT-549 breast", "result": 5.37, "unit": "µM"},
      {"measurement": "GI50", "setting": "MDA-MB-231 breast", "result": 2.81, "unit": "µM"},
      {"measurement": "TGI", "setting": "MDA-MB-231 breast", "result": 7.86, "unit": "µM"}
    ]},
    {"smiles": "CC1=CC(=O)C(C(C)=Nc2ccccc2Cl)C(=O)O1", "note": "(stereo not drawn)", "values": [
      {"measurement": "GI50", "setting": "MCF7 breast", "result": "> 100", "unit": "µM"},
      {"measurement": "TGI", "setting": "MCF7 breast", "result": "> 100", "unit": "µM"},
      {"measurement": "GI50", "setting": "NCI/ADR-RES ovarian", "result": "> 100", "unit": "µM"},
      {"measurement": "TGI", "setting": "NCI/ADR-RES ovarian", "result": "> 100", "unit": "µM"},
      {"measurement": "GI50", "setting": "MDA-MB-231 breast", "result": "> 100", "unit": "µM"},
      {"measurement": "TGI", "setting": "MDA-MB-231 breast", "result": "> 100", "unit": "µM"}
    ]},
    {"smiles": "Cn1cc(-c2ccc3c(c2)CCN3C(=O)Cc2cccc(C(F)(F)F)c2)c2c(N)ncnc21", "values": [
      {"measurement": "GI50", "setting": "MCF7 breast", "result": 4.5, "unit": "µM"},
      {"measurement": "TGI", "setting": "MCF7 breast", "result": 18.4, "unit": "µM"},
      {"measurement": "GI50", "setting": "NCI/ADR-RES ovarian", "result": 4.64, "unit": "µM"},
      {"measurement": "TGI", "setting": "NCI/ADR-RES ovarian", "result": 38.8, "unit": "µM"},
      {"measurement": "GI50", "setting": "BT-549 breast", "result": 1.82, "unit": "µM"},
      {"measurement": "TGI", "setting": "BT-549 breast", "result": 12.4, "unit": "µM"},
      {"measurement": "GI50", "setting": "MDA-MB-231 breast", "result": 4.69, "unit": "µM"},
      {"measurement": "TGI", "setting": "MDA-MB-231 breast", "result": 21.9, "unit": "µM"}
    ]},
    {"smiles": "O=C(O)CCC1CCc2cccc3occ1c23", "note": "(stereo not drawn)", "values": [
      {"measurement": "TGI", "setting": "M19-MEL melanoma", "result": "> 100", "unit": "µM"},
      {"measurement": "TGI", "setting": "LXFL 529 NSCLC", "result": "> 100", "unit": "µM"}
    ]},
    {"smiles": "CC[CH2][Pb]([CH2]CC)([CH2]CC)[NH]S(=O)(=O)c1ccc(C)cc1", "values": [
      {"measurement": "GI50", "setting": "MCF7 breast", "result": 0.0651, "unit": "µM"},
      {"measurement": "TGI", "setting": "MCF7 breast", "result": 0.418, "unit": "µM"},
      {"measurement": "GI50", "setting": "NCI/ADR-RES ovarian", "result": 0.217, "unit": "µM"},
      {"measurement": "TGI", "setting": "NCI/ADR-RES ovarian", "result": 0.641, "unit": "µM"},
      {"measurement": "GI50", "setting": "MDA-N", "result": 0.0294, "unit": "µM"},
      {"measurement": "TGI", "setting": "MDA-N", "result": 0.14, "unit": "µM"},
      {"measurement": "GI50", "setting": "BT-549 breast", "result": 0.0209, "unit": "µM"},
      {"measurement": "TGI", "setting": "BT-549 breast", "result": 0.0499, "unit": "µM"},
      {"measurement": "GI50", "setting": "MDA-MB-231 breast", "result": 0.0661, "unit": "µM"},
      {"measurement": "TGI", "setting": "MDA-MB-231 breast", "result": 0.27, "unit": "µM"}
    ]},
    {"smiles": "Cn1cc(-c2ccc(CNc3cc(-c4cnc5cc(OCCCN6CCCC6)ccn45)ncn3)cc2)cn1", "values": [
      {"measurement": "GI50", "setting": "MCF7 breast", "result": 2.45, "unit": "µM"},
      {"measurement": "TGI", "setting": "MCF7 breast", "result": 10.4, "unit": "µM"},
      {"measurement": "GI50", "setting": "NCI/ADR-RES ovarian", "result": 5.11, "unit": "µM"},
      {"measurement": "TGI", "setting": "NCI/ADR-RES ovarian", "result": "> 100", "unit": "µM"},
      {"measurement": "GI50", "setting": "BT-549 breast", "result": 12.6, "unit": "µM"},
      {"measurement": "TGI", "setting": "BT-549 breast", "result": 27.2, "unit": "µM"},
      {"measurement": "GI50", "setting": "MDA-MB-231 breast", "result": 1.91, "unit": "µM"},
      {"measurement": "TGI", "setting": "MDA-MB-231 breast", "result": 3.56, "unit": "µM"}
    ]},
    {"smiles": "CCCCC[C@H]1C/C=C2/C(=O)C(Cl)=C[C@@H]2C/C=C\\CCCC(=O)O[C@@H](CCCCC)C/C=C2/C(=O)C(Cl)=C[C@@H]2C/C=C\\CCCC(=O)O1", "values": [
      {"measurement": "GI50", "setting": "MCF7 breast", "result": 0.155, "unit": "µM"},
      {"measurement": "TGI", "setting": "MCF7 breast", "result": 1.93, "unit": "µM"},
      {"measurement": "GI50", "setting": "NCI/ADR-RES ovarian", "result": 2.44, "unit": "µM"},
      {"measurement": "TGI", "setting": "NCI/ADR-RES ovarian", "result": 9.46, "unit": "µM"},
      {"measurement": "GI50", "setting": "BT-549 breast", "result": 0.33, "unit": "µM"},
      {"measurement": "TGI", "setting": "BT-549 breast", "result": 0.836, "unit": "µM"},
      {"measurement": "GI50", "setting": "MDA-MB-231 breast", "result": 0.372, "unit": "µM"},
      {"measurement": "TGI", "setting": "MDA-MB-231 breast", "result": 0.995, "unit": "µM"}
    ]}
  ]
}
